The values that follow come from patent US20150105252A1, “SUBSTITUTED PYRAZOLES AS HERBICIDES” (E I DU PONT DE NEMOURS AND COMPANY, priority 2013, published 2015).

The subject of one experiment is johnsongrass. Description: Test E preemergence. The class given is in vivo, Sorghum halepense. The settings on record: 21 days, scale 0 to 100. From the text: (§1) Seeds of plant species selected from bermudagrass (Cynodon dactylon), Surinam grass (Brachiaria decumbens), crabgrass, large (large crabgrass, Digitaria sanguinalis), crabgrass, naked (naked crabgrass, Digitaria nuda), foxtail, green (green foxtail, Setaria viridis), johnsongrass (Sorghum halepense), kochia (Kochia scoparia), morningglory (pitted morningglory, Ipomoea lacunosa), nutsedge, purple (purple nutsedge, Cyperus rotundus), ragweed (common ragweed, Ambrosia elation), mustard, black (black mustard, Brassica nigra), guineagrass (Panicum maximum), dallisgrass (Paspalum dilatatum), barnyardgrass (Echinochloa crus-galli), sandbur (southern sandbur, Cenchrus echinatus), sowthistle (common sowthistle, Sonchus oleraceous), ryegrass, Italian (Italian ryegrass, Lolium multiflorum), signalgrass (broadleaf signalgrass, Brachiaria platyphylla), dayflower, VA (Virginia (VA) dayflower, Commelina virginica), bluegrass (annual bluegrass, Poa annua), quackgrass (Elytrigia repens), mallow (common mallow, Malva sylvestris), buckwheat, wild (wild buckwheat, Polygonum convolvulus), leafy spurge (Euphorbia esula), common chickweed (Stellaria media), wild poinsettia (Euphorbia heterophylla), pigweed, palmer (palmer pigweed, Amaranthus palmeri), and pigweed (redroot pigweed, Amaranthus retroflexus) were planted into a blend of loam soil and sand and treated preemergence with test chemicals formulated in a non-phytotoxic solvent mixture which included a surfactant.
(§2) Treated plants and controls were maintained in a greenhouse for 21 days, after which time all species were compared to controls and visually evaluated. Plant response ratings, summarized in Table E, are based on a scale of 0 to 100 where 0 is no effect and 100 is complete control. A dash (-) response means no test result.

Another experiment concerns nutsedge, purple. Description: Test E preemergence. Format: in vivo, Cyperus rotundus. As to conditions: 21 days, scale 0 to 100.
Description: as §1, §2

A further experiment deals with quackgrass. Description: Test E preemergence. Format: in vivo, Elytrigia repens. The settings on record: 21 days, scale 0 to 100.
Description: as §1, §2

The next experiment deals with wild poinsettia. Description: Test F postemergence. Format: in vivo, Euphorbia heterophylla. As to conditions: scale 0 to 100. The text has this: (§3) Seeds of plant species selected from corn (Zea mays), soybean (Glycine max), velvetleaf (Abutilon theophrasti), lambsquarters (Chenopodium album), wild poinsettia (Euphorbia heterophylla), pigweed, palmer (palmer pigweed, Amaranthus palmeri), common waterhemp (Amaranthus rudis), surinam grass (Brachiaria decumbens), large crabgrass (Digitaria sanguinalis), crabgrass, Brazil (Brazilian crabgrass, Digitaria horizontalis), fall panicum (Panicum dichotomiflorum), giant foxtail (Setaria faberii), green foxtail (Setaria viridis), goosegrass (Eleusine indica), johnsongrass (Sorghum halepense), common ragweed (Ambrosia elation), barnyardgrass (Echinochloa crus-galli), southern sandbur (Cenchrus echinatus), arrowleaf sida (Sida rhombifolia), Italian ryegrass (Lolium multiflorum), dayflower, VA (Virginia (VA) dayflower, Commelina virginica), field bindweed (Convolvulus arvensis), cocklebur (common cocklebur, Xanthium strumarium), morningglory (Ipomoea coccinea), nightshade (eastern black nightshade, Solanum ptycanthum), kochia (Kochia scoparia), yellow nutsedge (Cyperus esculentus), and hairy beggarticks (Bidens pilosa), were planted into a silt loam soil and treated preemergence with test chemicals formulated in a non-phytotoxic solvent mixture which included a surfactant.
(§4) At the same time, plants from these crop and weed species and also horseweed (Canada horseweed, Conyza canadensis), smartweed (ladysthumb smartweed, Polygonum persicaria), waterhemp_RES1, (ALS & Triazine resistant common waterhemp, Amaranthus rudis), and waterhemp_RES2, (ALS & HPPD resistant common waterhemp, Amaranthus rudis) were treated with postemergence applications of test chemicals formulated in the same manner. Plants ranged in height from 2 to 18 cm for postemergence treatments (1- to 4-leaf stage). Treated plants and controls were maintained in a greenhouse for 14 to 21 days, after which time all species were compared to controls and visually evaluated. Plant response ratings, summarized in Table F, are based on a scale of 0 to 100 where 0 is no effect and 100 is complete control. A dash (-) response means no test result.

A further experiment deals with pigweed, palmer. Description: Test F postemergence. Format: in vivo, Amaranthus palmeri. As to conditions: scale 0 to 100.
Description: as §3, §4

For another experiment, the system named is Italian ryegrass. Description: Test F postemergence. The class given is in vivo, Lolium multiflorum. The settings on record: scale 0 to 100.
Description: as §3, §4

The subject of the next experiment is field bindweed. Description: Test F postemergence. The class given is in vivo, Convolvulus arvensis. As to conditions: scale 0 to 100.
Description: as §3, §4

A further experiment deals with hairy beggarticks. Description: Test F postemergence. The class given is in vivo, Bidens pilosa. The settings on record: scale 0 to 100.
Description: as §3, §4

Molecules are shown by their SMILES.

`CCc1cc(C(=O)NCC(F)(F)F)nn1Cc1ccnc(C(F)(F)F)c1` [Compound 78, 5-ethyl-N-(2,2,2-trifluoroethyl)-1-[[(2-trifluoromethyl)-4-pyridinyl]methyl]-1H-pyrazole-3-carboxamide]: the “Plant response rating, Johnsongrass” value in the experiment with johnsongrass (16 g ai/ha) came out at 40; in the experiment on johnsongrass (31 g ai/ha), 80; in the experiment with johnsongrass (62 g ai/ha), 85; with johnsongrass (125 g ai/ha), 100; with johnsongrass (250 g ai/ha), 100. Besides, the “Plant response rating, Nutsedge, Purple” value with nutsedge, purple (16 g ai/ha) is 35; in the experiment on nutsedge, purple (31 g ai/ha), 75; with nutsedge, purple (62 g ai/ha), 98; with nutsedge, purple (125 g ai/ha), 100; in the experiment with nutsedge, purple (250 g ai/ha) it was 100. The “Plant response rating, Quackgrass” value in the experiment on quackgrass (16 g ai/ha) was found to be 60; in the experiment on quackgrass (31 g ai/ha) it was 95; in the experiment with quackgrass (62 g ai/ha), 100; with quackgrass (125 g ai/ha), 100; with quackgrass (250 g ai/ha), 100. In addition, the “Plant response rating, Wild Poinsettia” value stood at 25 in the experiment with wild poinsettia (Postemergence, 31 g ai/ha); 70 with wild poinsettia (Postemergence, 125 g ai/ha); 80 in the experiment with wild poinsettia (Postemergence, 250 g ai/ha); 50 in the experiment on wild poinsettia (postemergence, 62 g ai/ha); 90 with wild poinsettia (postemergence, 500 g ai/ha). Moreover, the “Plant response rating, Pigweed, Palmer” value with pigweed, palmer (Postemergence, 31 g ai/ha) was 50; in the experiment on pigweed, palmer (Postemergence, 125 g ai/ha), 70; in the experiment on pigweed, palmer (Postemergence, 250 g ai/ha), 90; with pigweed, palmer (postemergence, 62 g ai/ha) it was 60; in the experiment on pigweed, palmer (postemergence, 500 g ai/ha), 98. The “Plant response rating, Italian Ryegrass” value was 0 with Italian ryegrass (Postemergence, 31 g ai/ha); 40 in the experiment on Italian ryegrass (Postemergence, 125 g ai/ha); 60 with Italian ryegrass (Postemergence, 250 g ai/ha); 10 in the experiment with Italian ryegrass (postemergence, 62 g ai/ha); 90 in the experiment with Italian ryegrass (postemergence, 500 g ai/ha). Moreover, the “Plant response rating, Field Bindweed” value is 40 in the experiment with field bindweed (Postemergence, 31 g ai/ha); 90 in the experiment on field bindweed (Postemergence, 125 g ai/ha); 95 in the experiment with field bindweed (Postemergence, 250 g ai/ha); 70 in the experiment with field bindweed (postemergence, 62 g ai/ha); 98 in the experiment with field bindweed (postemergence, 500 g ai/ha). The “Plant response rating, Hairy Beggarticks” value in the experiment with hairy beggarticks (Postemergence, 31 g ai/ha) is 30; in the experiment on hairy beggarticks (Postemergence, 125 g ai/ha), 50; in the experiment on hairy beggarticks (Postemergence, 250 g ai/ha), 75; in the experiment with hairy beggarticks (postemergence, 62 g ai/ha) it was 40; with hairy beggarticks (postemergence, 500 g ai/ha), 90.
`CCc1cc(C(=O)NC(C)C)nn1Cc1ccnc(C(F)(F)F)c1` [Compound 103]: the “Plant response rating, Johnsongrass” value is given as 70 in the experiment on johnsongrass (16 g ai/ha); 100 with johnsongrass (31 g ai/ha); 100 in the experiment with johnsongrass (62 g ai/ha); 100 in the experiment with johnsongrass (125 g ai/ha); 100 in the experiment with johnsongrass (250 g ai/ha). The “Plant response rating, Nutsedge, Purple” value in the experiment with nutsedge, purple (16 g ai/ha) worked out at 15; with nutsedge, purple (31 g ai/ha), 75; with nutsedge, purple (62 g ai/ha) it was 90; with nutsedge, purple (125 g ai/ha), 98; in the experiment with nutsedge, purple (250 g ai/ha) it was 100. Further, the “Plant response rating, Quackgrass” value in the experiment on quackgrass (16 g ai/ha) is given as 95; in the experiment with quackgrass (31 g ai/ha) it was 98; with quackgrass (62 g ai/ha), 100; with quackgrass (125 g ai/ha), 100; in the experiment with quackgrass (250 g ai/ha), 100.
Turning to `CCOc1cc(C(=O)NC(C)C)nn1Cc1ccnc(C(F)(F)F)c1` [Compound 188], the “Plant response rating, Wild Poinsettia” value is on record as 60 in the experiment with wild poinsettia (Postemergence, 31 g ai/ha); 60 with wild poinsettia (Postemergence, 125 g ai/ha); 80 in the experiment on wild poinsettia (Postemergence, 250 g ai/ha); 70 in the experiment on wild poinsettia (postemergence, 62 g ai/ha); 85 in the experiment on wild poinsettia (postemergence, 500 g ai/ha). The “Plant response rating, Pigweed, Palmer” value in the experiment with pigweed, palmer (Postemergence, 31 g ai/ha) came out at 50; in the experiment on pigweed, palmer (Postemergence, 125 g ai/ha), 50; in the experiment on pigweed, palmer (Postemergence, 250 g ai/ha), 60; with pigweed, palmer (postemergence, 62 g ai/ha), 50; with pigweed, palmer (postemergence, 500 g ai/ha) it was 70. In addition, the “Plant response rating, Italian Ryegrass” value in the experiment on Italian ryegrass (Postemergence, 31 g ai/ha) was found to be 5; in the experiment with Italian ryegrass (Postemergence, 125 g ai/ha), 30; in the experiment with Italian ryegrass (Postemergence, 250 g ai/ha) it was 60; in the experiment with Italian ryegrass (postemergence, 62 g ai/ha), 10; in the experiment on Italian ryegrass (postemergence, 500 g ai/ha), 85. For the same molecule, the “Plant response rating, Field Bindweed” value with field bindweed (Postemergence, 31 g ai/ha) turned out to be 70; in the experiment with field bindweed (Postemergence, 125 g ai/ha), 90; with field bindweed (Postemergence, 250 g ai/ha), 95; with field bindweed (postemergence, 62 g ai/ha) it was 70; with field bindweed (postemergence, 500 g ai/ha), 95. For the same molecule, the “Plant response rating, Hairy Beggarticks” value in the experiment with hairy beggarticks (Postemergence, 31 g ai/ha) is listed as 50; in the experiment with hairy beggarticks (Postemergence, 125 g ai/ha) it was 50; in the experiment with hairy beggarticks (Postemergence, 250 g ai/ha) it was 60; in the experiment with hairy beggarticks (postemergence, 62 g ai/ha), 60; with hairy beggarticks (postemergence, 500 g ai/ha), 75.
Regarding `CCOc1cc(C(=O)NC2CC2)nn1Cc1ccnc(C(F)(F)F)c1` [Compound 189], the “Plant response rating, Johnsongrass” value is reported as 0 in the experiment on johnsongrass (4 g ai/ha); 0 with johnsongrass (8 g ai/ha); 25 with johnsongrass (16 g ai/ha); 100 with johnsongrass (31 g ai/ha); 100 in the experiment on johnsongrass (62 g ai/ha). For the same molecule, the “Plant response rating, Nutsedge, Purple” value in the experiment with nutsedge, purple (4 g ai/ha) was found to be 0; in the experiment with nutsedge, purple (8 g ai/ha) it was 10; in the experiment with nutsedge, purple (16 g ai/ha), 50; with nutsedge, purple (31 g ai/ha) it was 50; with nutsedge, purple (62 g ai/ha), 85. Moreover, the “Plant response rating, Quackgrass” value is 0 with quackgrass (4 g ai/ha); 0 in the experiment with quackgrass (8 g ai/ha); 35 in the experiment on quackgrass (16 g ai/ha); 75 with quackgrass (31 g ai/ha); 100 in the experiment with quackgrass (62 g ai/ha).
